Results on 71 molecules are retold here after PMC7802075 (ACS Infectious Diseases, 2020).

The target in the assay is T1, LmjIPCS (inositol phosphorylceramide synthase from L. major) (Leishmania major, UniProt E9AFX2).
T1 sequence (E9AFX2 1-338): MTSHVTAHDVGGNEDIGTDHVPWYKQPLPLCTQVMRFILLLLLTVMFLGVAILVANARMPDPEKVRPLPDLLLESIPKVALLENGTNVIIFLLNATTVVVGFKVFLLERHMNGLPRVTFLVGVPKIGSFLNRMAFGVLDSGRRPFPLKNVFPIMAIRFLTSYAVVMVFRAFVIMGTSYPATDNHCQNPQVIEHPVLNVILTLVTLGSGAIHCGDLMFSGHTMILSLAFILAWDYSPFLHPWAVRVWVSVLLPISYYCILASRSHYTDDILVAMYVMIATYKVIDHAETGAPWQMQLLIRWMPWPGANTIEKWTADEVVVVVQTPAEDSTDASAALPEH
The assay can be described thus: biochemical. Details: inhibition: dose or concentration left out as unconfirmed. The note with it: for inhibition at 20000 µM: read-out: 20mM inhibition LmjIPCS; for inhibition: read-out: inhibition LmjIPCS. The class given is biochemical.

[1] abbreviates: NINDS set screen, single concentration printed as 20mM.
The mark [2] stands for this setting: screening of NINDS set, sheet Screen 1.

Where two headings read alike, the source gives them in different places. Where a SMILES comes first, the peptide text is derived from it.

Consider `CN[C@@H]1[C@@H](O[C@H]2O[C@H](CO)[C@@H](N)[C@H](O)[C@H]2O)OC2C[C@@H](N)[C@@H](O[C@H]3[C@H](O)[C@@H](O)[C@H](N)C[C@@H]3N)OC2[C@@H]1O` (some centres unmarked) [APRAMYCIN], for which the inhibition at 20000 µM is 0.0509%. `CC(NCCc1ccc(O)cc1)C(O)c1ccc(O)cc1` (centres unmarked) [RITODRINE]: the “20mM inhibition LmjIPCS” value came to 58%. Turning to `CC[C@H]1[C@@H]2C[C@H]3[C@@H]4N(C)c5ccccc5[C@]45C[C@@H]([C@H]2[C@H]5O)N3[C@@H]1O` [AJMALINE], the inhibition at 20000 µM was 23%. For `COC(=O)Nc1nc2ccc(Sc3ccccc3)cc2[nH]1` [FENBENDAZOLE], the inhibition was 20%. For the molecule `CC(C)(C)NC[C@H](O)COc1nsnc1N1CCOCC1` [TIMOLOL], the inhibition is 22%. With `Cc1scc2c1N(C(=O)CN1CCN(C)CC1)c1ccccc1NC2=O` [TELENZEPINE], the “20mM inhibition LmjIPCS” value came out at 35%.

Turning to `CC(=O)CCCCn1c(=O)c2c(ncn2C)n(C)c1=O` [PENTOXIFYLLINE], the inhibition came to 5.62%. Take `Cc1ccc(S(=O)(=O)NC(=O)NN2CCCCCC2)cc1` [TOLAZAMIDE]: the inhibition at 20000 µM is -5%. With `CCOC(=O)[C@H](CCc1ccccc1)N[C@H]1CCc2ccccc2N(CC(=O)O)C1=O` [BENAZEPRIL], the inhibition at 20000 µM is -0.0339%.

For the molecule `CCCc1nc(C(C)(C)O)c(C(=O)OCc2oc(=O)oc2C)n1Cc1ccc(-c2ccccc2-c2nnn[nH]2)cc1` [OLMESARTAN MEDOXOMIL], the inhibition at 20000 µM was 21%. Consider `Cc1cc(C(C)(C)C)cc(C)c1CC1=NCCN1` [XYLOMETAZOLINE], for which the “20mM inhibition LmjIPCS” value under setting [1] is 62%. As for `C#C[C@]1(OC(C)=O)CC[C@H]2[C@@H]3CCC4=CC(=O)CC[C@@H]4[C@H]3CC[C@@]21C` [NORETHINDRONE ACETATE], the inhibition at 20000 µM stood at 30%. Regarding `CN1CCC[C@H]1c1cccnc1` [NICOTINE], the inhibition at 20000 µM is 10%. As to `CC[C@@H](CO)NCCN[C@@H](CC)CO` [ETHAMBUTOL], the inhibition is -1.19%. On to `N[C@@H](Cc1ccccc1)C(=O)N[C@@H](Cc1ccc(O)cc1)C(=O)O` [PHENYLALANYLTYROSINE] (H-Phe-Tyr-OH), for which the inhibition at 20000 µM worked out at 7.42%. Regarding `O=C(O)Cc1ccccc1Nc1c(Cl)cccc1Cl` [DICLOFENAC], the inhibition is -6.5%. Take `Cc1ccc(C)c(OCCCC(C)(C)C(=O)O)c1` [GEMFIBROZIL]: the inhibition at 20000 µM was -1.79%. Regarding `CCS(=O)(=O)CCn1c([N+](=O)[O-])cnc1C` [TINIDAZOLE], the inhibition at 20000 µM came out at 15%. With `CC1=C(CC(=O)O)c2cc(F)ccc2/C1=C\c1ccc([S+](C)[O-])cc1` (centres unmarked), the inhibition came to 12%.

Take `CSC(N)=NCCC[C@H](N)C(=O)O` [S-METHYL-L-THIOCITRULLINE ACETATE]: under setting [2], the inhibition was 10%. On to `Nc1ccc(C(=O)[O-])cc1.[K+]` [POTASSIUM p-AMINOBENZOATE], for which the “20mM inhibition LmjIPCS” value came to 40%. For `CO/N=C(\C(=O)N[C@@H]1C(=O)N2C(C(=O)OCOC(=O)C(C)(C)C)=C(/C=C\c3scnc3C)CS[C@H]12)c1csc(N)n1` [CEFDITORIN PIVOXIL], the “20mM inhibition LmjIPCS” value was 10%. Consider `CCN(CC)C(=O)N1CCN(C)CC1` [DIETHYLCARBAMAZINE], for which the inhibition is -3%. For the molecule `CN1CC(=O)NC1=N` [CREATININE], the inhibition (NINDS set screen) is 15%. Turning to `CCOC(=O)C(Cc1ccc(O)cc1)NC(C)=O` (centres unmarked) [ACETYL TYROSINE ETHYL ESTER], the inhibition under setting [2] is 3%. On to `Oc1ncnc2[nH]ncc12` [ALLOPURINOL], for which the “20mM inhibition LmjIPCS” value turned out to be 56%. Regarding `NS(=O)(=O)c1cc(C2(O)NC(=O)c3ccccc32)ccc1Cl` (centres unmarked) [CHLORTHALIDONE], the “20mM inhibition LmjIPCS” value was 42%. In the case of `CC1CC(OC(=O)C(O)c2ccccc2)CC(C)(C)N1C` (centres unmarked) [EUCATROPINE], the inhibition under setting [2] came out at 8%. `O=C1CCO1` [BETA-PROPIOLACTONE]: the “20mM inhibition LmjIPCS” value is 1.45%.

For the molecule `Clc1ccc(C(OCCN2CCCCC2)c2ccccc2)cc1` (centres unmarked) [CLOPERASTINE], the inhibition (NINDS set screen) was found to be 13%. In the case of `CCCOc1ccccc1-c1nc2nn[nH]c2c(=O)[nH]1` [ZAPRINAST], the inhibition under setting [2] came out at 7%. On the same count and under the same terms, next, `NC1=NCCN1CC(=O)O` [CYCLOCREATINE]: 11%. On to `COc1ccc(-c2oc3c(CC=C(C)C)c(O[C@@H]4O[C@H](CO)[C@@H](O)[C@H](O)[C@H]4O)cc(O)c3c(=O)c2O[C@@H]2O[C@@H](C)[C@H](O)[C@@H](O)[C@H]2O)cc1` [ICARIIN], for which the inhibition at 20000 µM was found to be 10%. Regarding `NS(=O)(=O)c1cc2c(cc1Cl)NC(C(Cl)Cl)NS2(=O)=O` (centres unmarked) [TRICHLORMETHIAZIDE], the inhibition turned out to be 20%. Turning to HECOGENIN, the “20mM inhibition LmjIPCS” value is reported as 23%. For `CC[N+](C)(C)c1cccc(O)c1` [EDROPHONIUM], the inhibition at 20000 µM came to 12%. For `COc1ccc(C(=O)c2ccccc2)c(O)c1` [OXYBENZONE], under setting [1], the “20mM inhibition LmjIPCS” value is 34%. As to `CC(C)(C)C(=O)C(Oc1ccc(Cl)cc1)n1cncn1` (centres unmarked) [TRIADIMEFON], the inhibition at 20000 µM worked out at 17%. `COc1cc(C(C)=O)cc(OC)c1O` [ACETOSYRINGONE]: the inhibition at 20000 µM was found to be 21%. `CCCNC(C)C(=O)Nc1ccccc1C` (centres unmarked) [PRILOCAINE]: the “20mM inhibition LmjIPCS” value was 34%.

Consider `CC[C@H]1OC(=O)[C@H](C)[C@@H](O[C@H]2C[C@@](C)(OC)[C@@H](O)[C@H](C)O2)[C@H](C)[C@@H](O[C@@H]2O[C@H](C)C[C@H](N(C)C)[C@H]2O)[C@](C)(O)C[C@@H](C)CN(C)[C@H](C)[C@@H](O)[C@]1(C)O` [AZITHROMYCIN], for which, for the setting “NINDS set screen”, the inhibition worked out at 19%. Regarding `CC[C@H]1OC(=O)[C@H](C)[C@@H](O[C@H]2C[C@@](C)(OC)[C@@H](O)[C@H](C)O2)[C@H](C)[C@@H](O[C@@H]2O[C@H](C)C[C@H](N(C)C)[C@H]2O)[C@](C)(OC)C[C@@H](C)C(=O)[C@H](C)[C@@H](O)[C@]1(C)O` [CLARITHROMYCIN], the inhibition under setting [2] worked out at 5.71%. Take `NCc1ccc(S(N)(=O)=O)cc1` [MAFENIDE]: the inhibition at 20000 µM is 11%. Consider `C1CCc2nnnn2CC1` [PENTETRAZOL], for which the inhibition at 20000 µM worked out at 16%.

For `CN(C)CCOC(c1ccc(Cl)cc1)c1ccccn1` (centres unmarked) [CARBINOXAMINE], under setting [1], the “20mM inhibition LmjIPCS” value was 36%. `Cn1c(=O)c2[nH]c(C3CCCC3)nc2n(C)c1=O` [8-CYCLOPENTYLTHEOPHYLLINE]: the inhibition at 20000 µM came to 4.71%. Consider `OC(CCN1CCCCC1)(c1ccccc1)C1CCCCC1` (centres unmarked) [TRIHEXYPHENIDYL], for which the “20mM inhibition LmjIPCS” value is reported as 57%. Consider `CC[C@@]1(O)C[C@H](O)c2c(cc3c(c2O)C(=O)c2c(O)ccc(O)c2C3=O)[C@H]1C(=O)OC` [RUTILANTINONE], for which the inhibition at 20000 µM was determined as 27%. As to `CC(=O)Oc1ccccc1C(=O)Oc1ccccc1C(=O)O` [DIPLOSALSALATE], the “20mM inhibition LmjIPCS” value under setting [1] is on record as 67%. For the molecule `C[C@]12CCC(=O)C=C1CC[C@@H]1[C@@H]2[C@@H](O)C[C@@]2(C)[C@H]1CC[C@]2(O)C(=O)CO` [HYDROCORTISONE], the inhibition turned out to be 13%.

As to `O=C(O)c1cn(-c2ccc(F)cc2)c2cc(N3CCNCC3)c(F)cc2c1=O` [SARAFLOXACIN], where the note is “NINDS set screen”, the inhibition is 18%.

Take `COc1ccc2c3c([nH]c2c1)C(C)=NCC3` [HARMALINE]: the “20mM inhibition LmjIPCS” value was determined as 54%. In the case of `O=C1CCCN1CC#CCN1CCCC1` [OXOTREMORINE], the inhibition at 20000 µM is 4%. `CCC(=O)O[C@H]1[C@H](O[C@@H]2[C@@H](C)[C@H](O[C@H]3C[C@@](C)(OC)[C@@H](O)[C@H](C)O3)[C@@H](C)C(=O)O[C@H](CC)[C@@](C)(O)[C@H](O)[C@@H](C)C(=O)[C@H](C)C[C@@]2(C)O)O[C@H](C)C[C@@H]1N(C)C` [ERYTHROMYCIN ESTOLATE]: the inhibition (NINDS set screen) was 22%. For the molecule `N=C(N)N/N=C/c1c(Cl)cccc1Cl` [GUANABENZ ACETATE], the “20mM inhibition LmjIPCS” value was 55%. For the molecule `C=CCc1ccc2c(c1)OCO2` [SAFROLE], the inhibition at 20000 µM came to 1.28%. With `O=c1[nH]cc(F)c(=O)[nH]1` [FLUOROURACIL], the inhibition stood at 4.66%. In the case of `Cc1ccnc(NS(=O)(=O)c2ccc(N)cc2)n1` [SULFAMERAZINE], the inhibition at 20000 µM came to 3.51%. Regarding `CCOC(=O)C1=C(C)NC(C)=C(C(=O)OC)C1c1cccc([N+](=O)[O-])c1` (centres unmarked) [NITRENDIPINE], the “20mM inhibition LmjIPCS” value amounted to 39%. For the molecule `Cc1ccccc1N1C(=O)c2cc(S(N)(=O)=O)c(Cl)cc2NC1C` (centres unmarked) [METOLAZONE], the “20mM inhibition LmjIPCS” value is 50%. On to `CC(=O)Oc1ccc2c(c1)CCC1C2CC[C@]2(C)C(=O)CCC12` (some centres unmarked) [ESTRONE ACETATE], for which the inhibition under setting [2] came to 8.56%.

Regarding `COc1cc(NC(C)CCCN)c2ncccc2c1` (centres unmarked) [PRIMAQUINE], the “20mM inhibition LmjIPCS” value worked out at 69%. `CC[C@H]1CN2CCc3cc(OC)c(OC)cc3[C@@H]2C[C@@H]1C[C@H]1NCCc2cc(OC)c(OC)cc21` [EMETINE]: the inhibition at 20000 µM was found to be 11%.

In the case of `O=c1cc(CO)occ1O` [KOJIC ACID], the inhibition was determined as 11%. Regarding `CCOC(=O)[N-]c1cn(N2CCOCC2)n[o+]1` [MOLSIDOMINE], the inhibition at 20000 µM was -0.951%.

`Oc1ccc(O)cc1` [HYDROQUINONE]: the inhibition at 20000 µM is -2.33%.

For `O=C1NC(=O)C(=O)C(=O)N1` [ALLOXAN], the inhibition at 20000 µM is -1.11%. As to `CC(CCc1ccccc1)NCC(O)c1ccc(O)c(C(N)=O)c1` (centres unmarked) [LABETALOL], the “20mM inhibition LmjIPCS” value turned out to be 50%. For the molecule `CNC(C)C1CCC(N)C(OC2C(N)CC(N)C(OC3OCC(C)(O)C(NC)C3O)C2O)O1` (centres unmarked) [GENTAMICIN], the inhibition was -1%. As to `CNC[C@H](O)c1cccc(O)c1` [PHENYLEPHRINE], the inhibition (NINDS set screen) came to 25%. Consider `CCCC(CCC)C(=O)O` [VALPROATE SODIUM], for which the inhibition worked out at 0.506%.
